Experimental findings from patent US8013159B2, “Quinoline derivatives as EP4 antagonists” (Merck Canada Inc., priority 2005, dated 2011) are described below.

T1 sequence (P35408 whole entry): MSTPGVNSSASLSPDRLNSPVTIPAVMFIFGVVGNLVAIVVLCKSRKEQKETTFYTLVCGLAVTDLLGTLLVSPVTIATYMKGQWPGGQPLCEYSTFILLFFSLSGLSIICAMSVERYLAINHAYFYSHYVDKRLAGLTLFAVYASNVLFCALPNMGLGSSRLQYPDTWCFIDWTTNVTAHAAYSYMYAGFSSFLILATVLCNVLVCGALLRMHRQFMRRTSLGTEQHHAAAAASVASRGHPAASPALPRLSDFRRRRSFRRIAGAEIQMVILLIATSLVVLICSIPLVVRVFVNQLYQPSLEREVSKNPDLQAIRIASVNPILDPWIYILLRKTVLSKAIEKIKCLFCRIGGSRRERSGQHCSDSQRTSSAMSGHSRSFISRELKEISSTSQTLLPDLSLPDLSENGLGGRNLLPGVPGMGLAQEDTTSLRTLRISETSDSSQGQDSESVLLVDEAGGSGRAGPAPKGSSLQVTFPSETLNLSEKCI

This experiment concerns the target T1, EP4 receptor (Homo sapiens, UniProt P35408).
T1 construct: expressed in transfected cells; membranes prepared by differential centrifugation
Briefly: Prostanoid receptor binding assay (EP4), membranes of transfected HEK 293(ebna) cells. The note with it: representative data, read-out: Potency in Binding Assay. The protocol:
Prostanoid receptor cDNAs corresponding to full length coding sequences are subcloned into the appropriate sites of mammalian expression vectors and transfected into HEK 293(ebna) cells. HEK 293(ebna) cells expressing the individual cDNAs are grown under selection and individual colonies are isolated after 2-3 weeks of growth using the cloning ring method and subsequently expanded into clonal cell lines.
Transfected HEK 293(ebna) cells are maintained in culture, harvested and membranes are prepared by differential centrifugation, following lysis of the cells in the presence of protease inhibitors, for use in receptor binding assays. Prostanoid receptor binding assays (for DP1, DP2 (CRTH2), EP 1, EP2, EP3-11, EP4, FP, IP, and TP) are performed in 10 mM MES/KOH (pH 6.0) (EPs, FP and TP) or 10 mM HEPES/KOH (pH 7.4) (DPs and IP), containing 1 mM EDTA, 2.5-30 mM divalent cation and the appropriate radioligand. Synthetic compounds are added in dimethylsulfoxide which is kept constant at 1% (v/v) in all incubations. The reaction is initiated by addition of membrane protein. Non-specific binding is determined in the presence of 10 μM of the corresponding non-radioactive prostanoid. Incubations are conducted for 60-90 min at room temperature or 30° C. and terminated by rapid filtration. Specific binding is calculated by subtracting non specific binding from total binding. The residual specific binding at each ligand concentration is calculated and expressed as a function of ligand concentration in order to construct sigmoidal concentration-response curves. The binding affinity of the compounds is determined by calculating the equilibrium inhibition constant (Ki) from the equation Ki=InPt/1+[radioligand]/Kd where Kd is the equilibrium dissociation constant for the radioligand:receptor interaction and InPt is the inflection point of the dose-response curves.
For `CCOc1c2c(c(OCC)c3ncccc13)CN(c1ccc(CS(=O)(=O)NC(=O)Cc3ccccc3OC)cc1C)C2=O` [Example 1, N-{[4-(5,9-diethoxy-6-oxo-6,8-dihydro-7H-pyrrolo[3,4-g]quinolin-7-yl)-3-methylbenzyl]sulfonyl}-2-(2-methoxyphenyl)acetamide], the IC50 stood at 0.47 nM.

Take `CCOc1c2c(c(OCC)c3ncccc13)CN(c1ccc(CS(=O)(=O)NC(=O)Cc3ccccc3C(F)(F)F)cc1C)C2=O` [Example 7, N-{[4-(5,9-diethoxy-6-oxo-6,8-dihydro-7H-pyrrolo[3,4-g]quinolin-7-yl)-3-methylbenzyl]sulfonyl}-2-[2-(trifluoromethyl)phenyl]acetamide]: the IC50 was 0.42 nM.

`CCOc1c2c(c(OCC)c3ncccc13)CN(c1ccc(CS(=O)(=O)NC(=O)Cc3cccc4ccccc34)cc1C)C2=O` [Example 19, N-{[4-(5,9-diethoxy-6-oxo-6,8-dihydro-7H-pyrrolo[3,4-g]quinolin-7-yl)-3-methylbenzyl]sulfonyl}-2-(1-naphthyl)acetamide]: the IC50 amounted to 0.72 nM.

For `COc1cccc(OC)c1C1(C(=O)NS(=O)(=O)Cc2ccc(N3Cc4c(c(OCC(F)(F)F)c5cccnc5c4OCC(F)(F)F)C3=O)c(C)c2)CC1` [Example 33, (1-(2,6-dimethoxyphenyl)-N-({3-methyl-4-[6-oxo-5,9-bis(2,2,2-trifluoroethoxy)-6,8-dihydro-7H-pyrrolo[3,4-g]quinolin-7-yl]benzyl}sulfonyl)cyclopropanecarboxamide)], the IC50 was found to be 0.83 nM.

Regarding `CCOc1c2c(c(OCC)c3ncccc13)CN(c1ccc(CS(=O)(=O)NC(=O)C3(c4ccc(Cl)cc4Cl)CC3)cc1C)C2=O` [Example 39, 1-(2,4-dichlorophenyl)-N-{[4-(5,9-diethoxy-6-oxo-6,8-dihydro-7H-pyrrolo[3,4-g]quinolin-7-yl)-3-methylbenzyl]sulfonyl}cyclopropane-carboxamide], the IC50 was found to be 0.76 nM.

`COc1cccc(OC)c1C1(C(=O)NS(=O)(=O)Cc2ccc(N3Cc4c(c(OCC(F)(F)F)c5cccnc5c4OCC(F)(F)F)C3=O)c(Cl)c2)CC1` [Example 63, N-({3-chloro-4-[6-oxo-5,9-bis(2,2,2-trifluoroethoxy)-6,8-dihydro-7H-pyrrolo[3,4-g]quinolin-7-yl]benzyl}sulfonyl)-1-(2,6-dimethoxyphenyl)cyclopropane-carboxamide]: the IC50 came to 0.61 nM.
